Reference: patent US11154559B2, “Methods and compositions of bile acids” (The General Hospital Corporation, priority 2011, dated 2021)

Assay: Effect of subcutaneous TUDCA on weight gain and food intake in mice on a high-fat diet
Type: in vivo, C57BL/6J mice
Conditions: 500 mg/kg s.c. twice a week vs placebo
Experimental: To examine the effect of circulating bile acids on body weight gain, C57BL/6J mice on a high-fat diet (HFD) were given subcutaneous injections of tauroursodeoxycholic acid (TUDCA, 500 mg/kg) or placebo for 10 weeks (N=6 per group). TUDCA was prepared daily in 0.15 M NaHCO3 (pH adjusted to 7.4). TUDCA or placebo (0.15 M NaHCO3, pH 7.4) was administered twice a week (Monday/Thursday) as 10 μl solution/g of body weight. Body weight (BW) was measured and recorded immediately before each injection and used to calculate the TUDCA or placebo dose to be administered.
Animals were 10 weeks of age at the start of the experiment (BW=32.6 g±2.6) and were on a […] from weaning that provided 60% of total energy as fat, 20% as carbohydrate, and 20% as protein (D12492 diet; Research Diets, New Brunswick, N.J.). Animals were individually housed on wire floors without bedding and maintained on a 12-hour light-dark cycle (lights on at 0700 hours) in a facility with an ambient temperature of 19-22° C.
Body weight was recorded twice a week, food intake was obtained weekly, and fasting blood glucose was measured every other week.

With `C[C@H](CCC(=O)NCCS(=O)(=O)O)[C@H]1CC[C@H]2[C@@H]3[C@@H](O)C[C@@H]4C[C@H](O)CC[C@]4(C)[C@H]3CC[C@]12C` [TUDCA, tauroursodeoxycholic acid] the “percent weight change from baseline” value (high-fat diet, FIG. 35) was “trend toward decreased weight”, the weight gain (high-fat diet, not statistically significant, FIG. 34) was “trend towards decreased weight gain” and the weekly food intake (FIG. 36) was “similar”. The cumulative food intake (FIG. 37) was “similar”.
